Reference: PMC8515607 (ACS Omega, 2021)
“And” between values parts separate entries of the source, which are not always exact repeats. Identical values can stand only once. Like-named read-outs stand apart in the source and are kept apart here.

Assays:
A549 = assay: cells; format: cell-based, human; conditions: for IC50: Homo sapiens; for A549 SI: selectivity index = IC50 BALB/3T3 / IC50 A549
From the text: (§1) The A549 and MCF7 cell lines were purchased from the European Collection of Authenticated Cell Cultures (ECACC, Salisbury, U.K., 86012804 and 86012803). The LoVo cell line was purchased from the American Type Culture Collection (CCL-229, ATCC, Manassas, VA), and LoVo/DX by courtesy of Prof. E. Borowski (Technical University of Gdańsk, Gdańsk, Poland). The BALB/3T3 cell line was purchased from the American Type Culture Collection (CCL-163, ATCC, Manassas, VA). All of the cell lines are maintained in the Institute of Immunology and Experimental Therapy (IIET), Wroclaw, Poland.
(§2) A549 cells were cultured in a mixture of OptiMEM and Roswell Park Memorial Institute (RPMI) 1640 (1:1) medium (IIET, Wroclaw, Poland), supplemented with 10% fetal bovine serum HyClone (GE Healthcare) and 2 mM L-glutamine (Sigma-Aldrich, Germany). MCF7 cells were cultured in a mixture of Eagle’s medium (IIET, Wroclaw, Poland), supplemented with 10% fetal bovine serum, 2 mM L-glutamine, and insulin (Sigma-Aldrich, Germany). LoVo and LoVo/DX cells were cultured in F12K medium (Corning), supplemented with 10% fetal bovine serum HyClone (GE Healthcare) and 0.1 μg/mL doxorubicin (Accord) for LoVo/DX. BALB/3T3 fibroblasts were cultured in Dulbecco’s medium (Gibco), supplemented with 10% fetal bovine serum (GE Healthcare) and 2 mM L-glutamine (Sigma-Aldrich, Germany). All culture media contained antibiotics: 100 U/mL penicillin (Polfa-Tarchomin, Poland) and 0.1 mg/mL streptomycin (Sigma-Aldrich, Germany). All cell lines were cultured during entire experiment in humid atmosphere at 37 °C and 5% CO2.
(§3) All cell lines were exposed to each tested agent at different concentrations in the range 100–0.00001 μg/mL for 72 h. The cells were also exposed to the reference drug cisplatin (Teva Pharmaceuticals, Poland) and doxorubicin (Accord Healthcare Limited, U.K.). Additionally, all cell lines were exposed to dimethyl sulfoxide (DMSO) (solvent used for tested compounds) (POCh, Poland) at concentrations corresponding to those present in tested agents dilutions. After 72 h, sulforhodamine B (SRB) assay was performed.[57]
(§4) After 72 h of incubation with the tested compounds, the cells were fixed in situ by gently adding cold 50% trichloroacetic acid (TCA) (POCh, Poland) and were incubated at room temperature for 1 h. Then, the wells were washed four times with water and air-dried. Next, 0.1% solution of sulforhodamine B (Sigma-Aldrich, Germany) in 1% acetic acid (POCh, Poland) was added to each well and the plates were incubated at room temperature for 0.5 h. After incubation time, unbound dye was removed by washing plates four times with 1% acetic acid, whereas stain bound to cells was solubilized with 10 mM Tris base (Sigma-Aldrich, Germany). Absorbance of each solution was read at Synergy H4 Hybrid Multi-Mode Microplate Reader (BioTek Instruments) at the 540 nm wavelength.
(§5) IC50 values were calculated in Excel sheet using formulas adapted by Mateusz Psurski fromCheburator 0.4, Dmitry Nevozhay software (version 1.2.0 software by Dmitry Nevozhay, 2004–2014, http://www.cheburator.nevozhay.com, freely available) for each experiment.[58] Compounds at each concentration were tested in triplicate in a single experiment, and each experiment was repeated at least three times independently.

LoVo = assay: cells; format: cell-based, human; conditions: for IC50: Homo sapiens, LoVo; for LoVo SI: selectivity index = IC50 BALB/3T3 / IC50 LoVo
From the text: as §1, §2, §3, §4, §5

LoVo/DX = assay: cells; format: cell-based, human; conditions: for IC50: Homo sapiens, LoVo/DX; for LoVo/DX RI: resistance index = IC50 LoVo/DX / IC50 LoVo; for LoVo/DX SI: selectivity index = IC50 BALB/3T3 / IC50 LoVo/DX
From the text: as §1, §2, §3, §4, §5

MCF-7 = assay: cells; format: cell-based, human; conditions: for IC50: Homo sapiens; for MCF-7 SI: selectivity index = IC50 BALB/3T3 / IC50 MCF-7
From the text: as §1, §2, §3, §4, §5

BALB/3T3 = assay: In vitro antiproliferative activity, SRB assay, normal fibroblasts BALB/3T3; format: cell-based; conditions: Mus musculus, BALB/3T3, normal murine embryonic fibroblasts, 72 h, mean ± SD
From the text: as §1, §2, §3, §4, §5

[1] = A549, 72 h, read-out: A549 IC50 (nM), 72 h exposure, SRB, mean ± SD
[2] = 72 h, read-out: LoVo/DX IC50 (nM), 72 h exposure, SRB, mean ± SD
[3] = MCF7, 72 h, read-out: MCF-7 IC50 (nM)

SMILES	IC50 (A549; [1]) [nM]	A549 SI (A549)	IC50 (LoVo; 72 h, read-out: LoVo IC50 (nM)) [nM]	LoVo SI (LoVo)	IC50 (LoVo/DX; [2]) [nM]	LoVo/DX RI (LoVo/DX)	LoVo/DX SI (LoVo/DX)	IC50 (MCF-7; [3]) [nM]	MCF-7 SI (MCF-7)	IC50 (BALB/3T3) [nM]	IC50 (A549; A549, 72 h exposure, SRB, mean ± SD, read-out: A549 IC50) [nM]	IC50 (LoVo; 72 h exposure, SRB, mean ± SD, read-out: LoVo IC50) [nM]	IC50 (LoVo/DX; 72 h exposure, SRB, mean ± SD, read-out: LoVo/DX IC50) [nM]	IC50 (MCF-7; MCF7, 72 h exposure, SRB, mean ± SD, read-out: MCF-7 IC50) [nM]
CCCCCCCCCCCCCCCC(=O)NCc1cn([C@H]2CCc3cc(OC)c(OC)c(OC)c3-c3ccc(NC)c(=O)cc32)nn1 [Compound 30]	16 ± 7.3	18.1	300 ± 94	1.0	7300 ± 1100	24	<0.1	9.3 ± 2.4	31.2	290 ± 49	–	–	–	–
CNc1ccc2c(cc1=O)[C@@H](n1cc(-c3ccccn3)nn1)CCc1cc(OC)c(OC)c(OC)c1-2 [Compound 16]	35 ± 10	1.2	27 ± 14	1.5	210 ± 65	7.8	0.2	28 ± 12	1.5	41 ± 4	–	–	–	–
CNc1ccc2c(cc1=O)[C@@H](n1cc(C(C)(C)O)nn1)CCc1cc(OC)c(OC)c(OC)c1-2 [Compound 12]	37 ± 4.2	1.4	19 ± 3.9	2.6	2400 ± 550	130	<0.1	13 ± 3.4	3.8	50 ± 4.5	–	–	–	–
CNc1ccc2c(cc1=O)[C@@H](n1cc(CNC(=O)OC(C)(C)C)nn1)CCc1cc(OC)c(OC)c(OC)c1-2 [Compound 41]	5.4 ± 1.5	2.0	5.1 ± 0.3	2.2	570 ± 120	110	<0.1	3.2 ± 0.6	3.4	11 ± 0.8	–	–	–	–
CNc1ccc2c(cc1=O)[C@@H](n1cc(COC(=O)c3ccncc3)nn1)CCc1cc(OC)c(OC)c(OC)c1-2 [Compound 28]	9.5 ± 2.9	1.3	7.9 ± 3.3	1.5	1000 ± 94	130	<0.1	3.9 ± 1.1	3.1	12 ± 1.1	–	–	–	–
CNc1ccc2c(cc1=O)[C@@H](n1nnc(C(=O)O)c1C(=O)O)CCc1cc(OC)c(OC)c(OC)c1-2 [Compound 23]	1000 ± 240	1.2	860 ± 190	1.4	2900 ± 390	3.4	0.4	990 ± 82	1.2	1200 ± 14	–	–	–	–
CNc1ccc2c(cc1=O)[C@@H](n1cc(COC(=O)CCC(F)(F)F)nn1)CCc1cc(OC)c(OC)c(OC)c1-2 [Compound 25]	1.3 ± 0.2	5.2	2.2 ± 1.2	3.0	350 ± 56	160	<0.1	1.1 ± 0.4	6.1	6.7 ± 2.4	–	–	–	–
CCCCCCCCCCCCCCCC(=O)OCc1cn([C@H]2CCc3cc(OC)c(OC)c(OC)c3-c3ccc(NC)c(=O)cc32)nn1 [Compound 24]	16 ± 5.2	3.4	19 ± 7	2.8	3300 ± 280	170	<0.1	11 ± 0.7	4.9	54 ± 20	–	–	–	–
CNc1ccc2c(cc1=O)[C@@H](n1cc(C(=O)O)nn1)CCc1cc(OC)c(OC)c(OC)c1-2 [Compound 20]	1300 ± 330	1.6	1200 ± 350	1.8	3400 ± 890	2.8	0.6	1200 ± 390	1.8	2100 ± 750	–	–	–	–
CNc1ccc2c(cc1=O)[C@@H](n1cc(CNC(=O)c3ccncc3)nn1)CCc1cc(OC)c(OC)c(OC)c1-2 [Compound 36]	22 ± 7.4	3.4	13 ± 3.4	5.7	9100 ± 790	700	<0.1	12 ± 1.4	6.3 and 6.2	74 ± 22	–	–	–	–
CNc1ccc2c(cc1=O)[C@@H](n1cc(C3(O)CCCCC3)nn1)CCc1cc(OC)c(OC)c(OC)c1-2 [Compound 13]	94 ± 30	1.1	65 ± 33	1.5	1700 ± 160	26	0.1	88 ± 50	1.1	100 ± 33	–	–	–	–
COc1cccc2c1C(=O)c1c(O)c3c(c(O)c1C2=O)C[C@@](O)(C(=O)CO)C[C@@H]3O[C@H]1C[C@H](N)[C@H](O)[C@H](C)O1 [doxorubicin, reference compound]	–	0.1	–	0.2	–	110	<0.1	–	0.1	12 ± 2.3	120 ± 100	52 ± 13	5800 ± 2200	82 ± 31
CNc1ccc2c(cc1=O)[C@@H](NC(C)=O)CCc1cc(OC)c(OC)c(OC)c1-2 [Compound 2, 10-N-methylaminocolchicine]	4.4 ± 0.6	1.4	5.4 ± 0.7	1.1	230 ± 17	43	<0.1	3.5 ± 0.7	1.7	6 ± 2.3	–	–	–	–
